How the values were obtained:
human Jurkat T cells [1] = experiment: In vitro mRNA transfection efficiency (eGFP fluorescence), flow cytometry; assay type: cell-based; conditions: 44-hour incubation; for transfection efficiency: 100 ng mRNA per well, eGFP fluorescence, FIG. 17B; for transfection efficiency, result in words: compared with the controls
Experimental: (§1) Flow cytometry was used to determine in vitro cellular uptake and transfection efficacy in human Jurkat T cells. The cells were seeded in a 96-well plate at a density of 40,000 cells/well. Different formulations containing 100 ng of mRNA were added to each well and were incubated for 44 hours at 37° C. The cells were washed and centrifuged at 300×g. The supernatant was discarded. After the cells were diluted in PBS, flow cytometry analysis was performed to quantify the amounts of cellular uptake and transfection efficiency.
(§2) LNPs with different compositions were tested against Jurkat cells for both cellular uptake and mRNA transfection efficiencies, as depicted in FIGS. 17A and 17B respectively. Human Jurkat cells are representative T lymphocytes which are known to be difficult to transfect. The LNPs were tested for cellular uptake using Cy5-labeled eGFP mRNA. Cy5 fluorescent dye was used to determine the cellular uptake while eGFP fluorescence was used to determine the transfection efficiency of the mRNA encapsulated in the different LNP formulations. After 44-hour incubation, fluorescence was measured using a flow cytometer. In Jurkat cells, the cellular uptake was ˜36% for the positive control, SM-102 while the transfection efficiency was ˜91%.

human Jurkat T cells [2] = experiment: In vitro cellular uptake of Cy5-labeled eGFP mRNA LNPs, flow cytometry; assay type: cell-based; conditions: 44-hour incubation; for cellular uptake efficiency, result in words: compared with the controls
Experimental: as §1, §2

Compound | transfection efficiency (human Jurkat T cells [1]) | cellular uptake efficiency, result in words (human Jurkat T cells [2]) | transfection efficiency, result in words (human Jurkat T cells [1]) | cellular uptake (human Jurkat T cells [2]; 100 ng mRNA per well, Cy5 fluorescence, FIG. 17A)
CCCCCCCCC(CCCCCC)COC(=O)CCCCCN(CCCCCC(=O)OCC(CCCCCC)CCCCCCCC)CCN(C)C (stereo not shown) [Control 2, 1,1′-bis(2-hexyldecyl) 6,6′-[[2-(dimethylamino)ethyl]imino]bis[hexanoate], reference compound] | 80% |  |  | 
CCCCCCCCC(CCCCCC)COC(=O)CCCCCN(CCCCCC(=O)OCC(CCCCCC)CCCCCCCC)CCN(CCO)C1CCC1 (stereo not shown) [Lipid 1] | 59% |  |  | 
CCCCCCCCC(CCCCCC)COC(=O)CCCCCN(CCCCCC(=O)OCC(CCCCCC)CCCCCCCC)CCN(CCN(C)C)C1CCC1 (stereo not shown) [Lipid 2, 2-hexyldecyl 6-[(2-{cyclobutyl[2-(dimethylamino)ethyl]amino}ethyl)({6-[(2-hexyldecyl)oxy]-6-oxohexyl})amino]hexanoate] | 92% | outperformed the controls | outperformed the controls | 
CCCCCCCCC(CCCCCC)COC(=O)CCCCCN(CCCCCC(=O)OCC(CCCCCC)CCCCCCCC)CCN(CCCN(C)C)C1CCC1 (stereo not shown) [Lipid 3, 2-hexyldecyl 6-[(2-{cyclobutyl[3-(dimethylamino)propyl]amino}ethyl)({6-[(2-hexyldecyl)oxy]-6-oxohexyl})amino]hexanoate] | 78% | outperformed the controls | outperformed the controls | 
CCCCCCCCCCCOC(=O)CCCCCN(CCO)CCCCCCCC(=O)OC(CCCCCCCC)CCCCCCCC [SM-102, reference compound] | ~91% |  |  | ~36%
